# Source: patent US20050043289A1, “Crystalline hydrochloride of 7-(((5-amino-1,2,4-thiadiazol-3-yl) (fluoromethoxyimino)acetyl)amino)-3-((imino-1-piperazinylmethyl)methylhydrazono)-methyl-3-cephem-4-carboxylic acid” (priority 2002, published 2005)
# Structures can show the parent of a compound that is named as a salt. Where two headings read alike, the source gives them in different places.
# What was measured:
# [1] = storage stability in solid form; type: physicochemical; details: e.g. at 5° C.
# solubility in water = type: physicochemical
# Text: Thus, a compound of the present invention is appropriate for pharmaceutical administration.
# [2] = stability in aqueous solution; type: physicochemical; details: pH values of 3-5, 5° C.
# [3] = water uptake in presence of environmental moisture (stress test) / water content constancy; type: physicochemical; details: Karl Fischer, over 6 weeks
# Text: A monohydrochloride, produced according to the present invention, may be obtained in the form of a trihydrate, which, after appropriate drying, has a water content of ca. 7% to 10%, such as 7.3% to 9.6% (theory: 8.2%). The monohydrochloride in the form of a trihydrate may be dried, e.g. over P2O5, to a water content of 1.5%. […] The chloride content of the monohydrochloride in the form of a trihydrate is between 5% and 6% (theory: 5.5%).
# Water content (Karl Fischer): 9.6%. […] HCl (titration): 5.5%. Isopropanol-content: 0.05%. Content of a compound of formula I (based on the free base): […]. pH and [β]^20D of a 1% solution in water: pH: 4.3; [β]^20589=−167±1°
# [4] = tested on: multi-drug resistant Pneumococcus; experiment: MIC, Agar Dilution Test and/or Micro Dilution Test (NCCLS); type: cell-based; details: Streptococcus pneumoniae; against multi-drug resistant Pneumococcus
# Text: (§1) In particular, the compounds of the present invention show antimicrobial, e.g. antibacterial activity against aerobic and anaerobic growing bacteria, e.g. gram negative and gram positive bacteria such as Enterobacter, e.g. Enterobacter cloacae; Enterococcus, e.g. Enterococcus faecalis; Moraxella, e.g. Moraxella catarrhalis; Haemophilus, e.g. Haemophilus influenza; Klebsiella, e.g. Klebsiella edwardsii, Klebsiella pneumoniae; Streptococcus, e.g. Streptococcus pyogenes; Staphylococcus, e.g. Staphylococcus aureus MSSA (methicillin sensitive strains); Staphylococcus aureus MRSA (methicillin resistant strains); Escherichia coli; Proteus, e.g. Proteus mirabilis; Salmonella, e.g. Salmonella typhimurium; Serratia, e.g. Serratia marcescens; Pneumococci, e.g. Streptococcus pneumoniae (penicillin resistant and multi-drug resistant strains); in vitro in the Agar Dilution Test and/or Micro Dilution Test for bacteria according to National Committee for Clinical Laboratory Standards (NCCLS) 1993, • Document M7-A3, Vol. 13, No.25: “Methods for dilution Antimicrobial Susceptibility Tests for Bacteria that Grow Aerobically”—Third Edition, Approved Standard”; and • Document M11 -A3 for anaerobic bacteria in a concentration from about 0.001 to about […] (MIC), e.g. using strains including Staphylococcus aureus (ATCC 29213 and ATCC 9144); Enterococcus faecalis (ATCC 29212); Haemophilus influenza (NTCC 49247 and NCTC 11931); Escherichia coli (ATCC 25922 and ATCC 35218); Klebsiella pneumoniae (NCTC 11228); Klebsiella edwardsii (NCTC 10896); and in vivo in the septicaemia mouse model, in accordance to the method description Nr. […] E.g., mice are infected with an ED 95% of Staphylococcus aureus (ATCC 4995), Streptococcus pyogenes (ATCC 29218), Escherichia coli (Δ 12 NFI culture collection) and are treated 1.5 and 24 hours after infection. The ED 50% values ranging form ca. 0.2 to 50 mg/kg body weight are calculated by Probit analysis of the administered dosages of compounds. Activity is determined by numbers of surviving animals per group of 8 mice per dosage unit day 5 after infection. The compounds of the invention show an surprising overall activity spectrum.
# [5] = tested on: methicillin resistant Staphylococcus aureus; experiment: as above; type: cell-based; details: against methicillin resistant Staphylococcus aureus
# Text: as §1
# [6] = tested on: Staphylococcus aureus (MSSA); experiment: as above; type: cell-based; details: against Staphylococcus aureus (MSSA)
# Text: as §1
# Enterococcus faecalis = experiment: as above; type: cell-based; details: against Enterococcus faecalis
# Text: as §1
# Enterobacter cloacae = experiment: as above; type: cell-based; details: against Enterobacter cloacae
SMILES,storage time with practically no or only slight decomposition [1],solubility (solubility in water; in water at 5°C.),"solubility (solubility in water; in water at room temperature, read-out: solubility)",stability in aqueous solution [2],water content constancy [3],MIC [4],MIC [5],MIC [6],MIC (Enterococcus faecalis),MIC (Enterobacter cloacae)
CN(/N=C/C1=C(C(=O)O)N2C(=O)[C@@H](NC(=O)/C(=N\OCF)c3nsc(N)n3)C2SC1)C(=N)N1CCNCC1 (stereo partly shown),at least 4 weeks,≥ 2 % (w/v),~100 mg/mL,remains stable for at least one week,–,–,–,–,–,–
"CN(/N=C/C1=C(C(=O)O)N2C(=O)[C@@H](NC(=O)/C(=N\OCF)c3nsc(N)n3)C2SC1)C(=N)N1CCNCC1 (stereo partly shown) [Example 2, 7-{[(5-amino-1,2,4-thiadiazol-3-yl)-(Z)-(fluoromethoxyimino)acetyl]amino}-3-[(imino-1-piperazinylmethyl)methylhydrazono]-methyl-3-cephem-4-carboxylic acid in the form of a monohydrochloride and in the form of a trihydrate]",–,–,–,–,Water content constant (±6%) over 6 weeks,0.4 to 0.8 µg/mL,0.8 to 12.6 µg/mL,0.2 to 0.8 µg/mL,0.1 to 0.8 µg/mL,0.025 to 12.8 µg/mL
